Values quoted from earlier work, collected in patent US20070071815A1 (priority 2004, published 2007).

CN(CC(=O)O)C(=N)N [creatine, N-(aminoiminomethyl)-N-methylglycine]
half-life of creatine in blood plasma: 1 to 1.5 h
